Where two headings read alike, the source gives them in different places. Positions of bridges follow the written chain, without caps; N, C: chain ends. Residues, ends and D or L forms follow the SMILES beside them.
Key:
Assay in all cases: Fluorescence anisotropy binding, Oregon Green labeled peptide
human plasma IgG1 = biological target: T1, human plasma IgG1 (Homo sapiens, UniProt P01857)
T1 construct: the individual human plasma IgG isoforms: IgG1, IgG2, IgG3, or IgG4; purchased Calbiochem; host or cells: human plasma
Method: (§1) Peptides were synthesized by BACHEM and then Oregon Green labeled and HPLC purified. Binding studies were performed using human plasma IgG isoforms: IgG1, IgG2, IgG3, and IgG4, obtained from Calbiochem.
(§2) Binding studies were carried out at either pH 4.0, 7.5, or 9.5, with or without salt in the following buffers:
(§3) 2) 10 mM Sodium Citrate, 500 mM Sodium Chloride, 0.01% Tween 20, pH 4.0;
(§4) 4) […], 500 mM Sodium Chloride, 0.01% Tween 20, pH 7.5;
(§5) 5) 10 mM Sodium Bicarbonate, 0.01% Tween 20, pH 9.5;
(§6) 6) 10 mM Sodium Bicarbonate, 500 mM Sodium Chloride, 0.01% Tween 20, pH 9.5; or […]

human plasma IgG4 = biological target: T2, human plasma IgG4 (Homo sapiens, UniProt P01861)
T2 construct: the individual human plasma IgG isoforms: IgG1, IgG2, IgG3, or IgG4; purchased Calbiochem; host or cells: human plasma
Method: as §1, §2, §3, §4, §5, §6

human plasma IgG3 = biological target: T3, human plasma IgG3 (Homo sapiens, UniProt P01860)
T3 construct: the individual human plasma IgG isoforms: IgG1, IgG2, IgG3, or IgG4; purchased Calbiochem; host or cells: human plasma
Method: as §1, §2, §3, §4, §5, §6

human plasma IgG2 = biological target: T4, human plasma IgG2 (Homo sapiens, UniProt P01859)
T4 construct: the individual human plasma IgG isoforms: IgG1, IgG2, IgG3, or IgG4; purchased Calbiochem; host or cells: human plasma
Method: as §1, §2, §3, §4, §5, §6

[1] = 10 nM Tris-HCl, 500 mM Sodium Chloride, pH 7.5, read-out: KD (μM) IgG1 pH 7.5 + salt
[2] = 10 mM Sodium Bicarbonate, 500 mM Sodium Chloride, pH 9.5, read-out: KD (μM) IgG1 pH 9.5 + salt
[3] = 10 mM Sodium Bicarbonate, pH 9.5, read-out: KD (μM) IgG1 pH 9.5 − salt
[4] = 10 mM Sodium Citrate, 500 mM Sodium Chloride, pH 4.0, read-out: KD (μM) IgG1 pH 4.0 + salt
[5] = 10 mM Sodium Citrate, pH 4.0, read-out: KD (μM) IgG1 pH 4.0 − salt
[6] = 10 mM Tris-HCl, pH 7.5, read-out: KD (μM) IgG1 pH 7.5 − salt
[7] = TBS, 0.01% Tween 20, pH 7.5, read-out: KD (μM) IgG1 TBS
[8] = 10 nM Tris-HCl, 500 mM Sodium Chloride, pH 7.5, read-out: KD (μM) IgG4 pH 7.5 + salt
[9] = 10 mM Sodium Bicarbonate, 500 mM Sodium Chloride, pH 9.5, read-out: KD (μM) IgG4 pH 9.5 + salt
[10] = 10 mM Sodium Bicarbonate, pH 9.5, read-out: KD (μM) IgG4 pH 9.5 − salt
[11] = 10 mM Sodium Citrate, 500 mM Sodium Chloride, pH 4.0, read-out: KD (μM) IgG4 pH 4.0 + salt
[12] = 10 mM Sodium Citrate, pH 4.0, read-out: KD (μM) IgG4 pH 4.0 − salt
[13] = 10 mM Tris-HCl, pH 7.5, read-out: KD (μM) IgG4 pH 7.5 − salt
[14] = TBS, 0.01% Tween 20, pH 7.5, read-out: KD (μM) IgG4 TBS
[15] = 10 nM Tris-HCl, 500 mM Sodium Chloride, pH 7.5, read-out: KD (μM) IgG3 pH 7.5 + salt
[16] = 10 mM Sodium Bicarbonate, 500 mM Sodium Chloride, pH 9.5, read-out: KD (μM) IgG3 pH 9.5 + salt
[17] = 10 mM Sodium Bicarbonate, pH 9.5, read-out: KD (μM) IgG3 pH 9.5 − salt
[18] = 10 mM Sodium Citrate, 500 mM Sodium Chloride, pH 4.0, read-out: KD (μM) IgG3 pH 4.0 + salt
[19] = 10 mM Sodium Citrate, pH 4.0, read-out: KD (μM) IgG3 pH 4.0 − salt
[20] = 10 mM Tris-HCl, pH 7.5, read-out: KD (μM) IgG3 pH 7.5 − salt
[21] = TBS, 0.01% Tween 20, pH 7.5, read-out: KD (μM) IgG3 TBS
[22] = 10 nM Tris-HCl, 500 mM Sodium Chloride, pH 7.5, read-out: KD (μM) IgG2 pH 7.5 + salt
[23] = 10 mM Sodium Bicarbonate, 500 mM Sodium Chloride, pH 9.5, read-out: KD (μM) IgG2 pH 9.5 + salt
[24] = 10 mM Sodium Bicarbonate, pH 9.5, read-out: KD (μM) IgG2 pH 9.5 − salt
[25] = 10 mM Sodium Citrate, 500 mM Sodium Chloride, pH 4.0, read-out: KD (μM) IgG2 pH 4.0 + salt
[26] = 10 mM Sodium Citrate, pH 4.0, read-out: KD (μM) IgG2 pH 4.0 − salt
[27] = 10 mM Tris-HCl, pH 7.5, read-out: KD (μM) IgG2 pH 7.5 − salt
[28] = TBS, 0.01% Tween 20, pH 7.5, read-out: KD (μM) IgG2 TBS

T4 sequence (P01859 1-326 isoform P01859-1): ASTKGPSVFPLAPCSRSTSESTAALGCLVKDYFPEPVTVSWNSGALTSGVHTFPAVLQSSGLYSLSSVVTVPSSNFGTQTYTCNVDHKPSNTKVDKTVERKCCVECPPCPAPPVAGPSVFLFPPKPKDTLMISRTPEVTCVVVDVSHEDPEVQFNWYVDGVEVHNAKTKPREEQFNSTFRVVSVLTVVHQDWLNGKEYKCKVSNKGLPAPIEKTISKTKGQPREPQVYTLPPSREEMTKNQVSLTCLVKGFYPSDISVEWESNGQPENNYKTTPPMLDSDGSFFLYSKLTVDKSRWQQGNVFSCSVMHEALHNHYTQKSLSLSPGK
T3 sequence (P01860 1-377 isoform P01860-1): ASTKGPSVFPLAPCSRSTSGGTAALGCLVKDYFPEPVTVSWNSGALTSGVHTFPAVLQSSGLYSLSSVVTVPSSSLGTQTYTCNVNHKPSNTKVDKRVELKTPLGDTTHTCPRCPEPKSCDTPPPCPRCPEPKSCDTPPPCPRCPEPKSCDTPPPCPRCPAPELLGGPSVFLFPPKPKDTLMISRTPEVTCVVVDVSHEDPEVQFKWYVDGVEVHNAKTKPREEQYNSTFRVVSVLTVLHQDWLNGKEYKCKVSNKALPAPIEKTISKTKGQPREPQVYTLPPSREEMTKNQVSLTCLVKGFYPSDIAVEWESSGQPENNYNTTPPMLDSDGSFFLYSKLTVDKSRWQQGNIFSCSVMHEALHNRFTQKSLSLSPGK
T1 sequence (P01857 1-330 isoform P01857-1): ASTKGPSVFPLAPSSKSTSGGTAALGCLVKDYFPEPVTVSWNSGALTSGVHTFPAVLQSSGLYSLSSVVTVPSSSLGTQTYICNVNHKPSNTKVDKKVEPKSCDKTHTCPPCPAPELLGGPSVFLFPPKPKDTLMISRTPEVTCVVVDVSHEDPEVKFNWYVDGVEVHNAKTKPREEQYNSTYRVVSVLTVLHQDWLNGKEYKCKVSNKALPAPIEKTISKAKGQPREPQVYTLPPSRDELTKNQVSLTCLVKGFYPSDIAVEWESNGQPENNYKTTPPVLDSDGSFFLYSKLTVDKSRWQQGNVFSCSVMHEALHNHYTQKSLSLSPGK
T2 sequence (P01861 1-327 isoform P01861-1): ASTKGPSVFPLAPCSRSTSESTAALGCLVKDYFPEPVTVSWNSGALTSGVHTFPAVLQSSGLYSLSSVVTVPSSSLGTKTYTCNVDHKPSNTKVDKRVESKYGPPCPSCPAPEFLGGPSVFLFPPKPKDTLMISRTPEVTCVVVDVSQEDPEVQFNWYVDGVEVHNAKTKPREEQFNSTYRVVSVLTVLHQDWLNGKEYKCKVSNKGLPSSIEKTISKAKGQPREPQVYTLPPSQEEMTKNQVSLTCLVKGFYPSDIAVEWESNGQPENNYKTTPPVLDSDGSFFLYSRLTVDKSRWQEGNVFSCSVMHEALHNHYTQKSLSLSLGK

Kd (human plasma IgG1; [1]) [µM] | Kd (human plasma IgG1; [2]) [µM] | Kd (human plasma IgG1; [3]) [µM] | Kd (human plasma IgG1; [4]) [µM] | Kd (human plasma IgG1; [5]) [µM] | Kd (human plasma IgG1; [6]) [µM] | Kd (human plasma IgG1; [7]) [µM] | Kd (human plasma IgG4; [8]) [µM] | Kd (human plasma IgG4; [9]) [µM] | Kd (human plasma IgG4; [10]) [µM] | Kd (human plasma IgG4; [11]) [µM] | Kd (human plasma IgG4; [12]) [µM] | Kd (human plasma IgG4; [13]) [µM] | Kd (human plasma IgG4; [14]) [µM] | Kd (human plasma IgG3; [15]) [µM] | Kd (human plasma IgG3; [16]) [µM] | Kd (human plasma IgG3; [17]) [µM] | Kd (human plasma IgG3; [18]) [µM] | Kd (human plasma IgG3; [19]) [µM] | Kd (human plasma IgG3; [20]) [µM] | Structure (SMILES) | also measured
> 10 | > 10 | > 10 | > 10 | > 10 | > 10 | > 10 | > 10 | > 10 | > 10 | > 10 | > 10 | > 10 | > 10 | > 10 | > 10 | > 10 | ~2 | ~2 | > 10 | CC(=O)N[C@@H](C)C(=O)NCC(=O)N1CCC[C@H]1C(=O)N[C@@H](Cc1c[nH]cn1)C(=O)N[C@@H](CC(N)=O)C(=O)N[C@H]1CSSC[C@@H](C(=O)N[C@@H](CCCCN)C(=O)N[C@@H](Cc2c[nH]c3ccccc23)C(=O)N[C@@H](Cc2ccccc2)C(=O)N2CCC[C@H]2C(=O)NCC(=O)N2CCC[C@H]2C(=O)N[C@@H](CCC(=O)O)C(=O)NCC(=O)NCC(=O)NCC(=O)N[C@@H](CCCCN)C(N)=O)NC(=O)[C@H](Cc2ccc(O)cc2)NC(=O)[C@H](Cc2c[nH]c3ccccc23)NC(=O)[C@H](Cc2ccc(O)cc2)NC(=O)[C@H](Cc2c[nH]cn2)NC(=O)[C@H](CC(=O)O)NC(=O)[C@H](CC(=O)O)NC1=O [DX389] (Ac-AGPHNCDDHYWYCKWFPGPEGGGK-NH2; disulfide 6-13 (inferred)) | Kd (human plasma IgG3; [21]): > 10 µM; Kd (human plasma IgG2; [22]): > 10 µM; Kd (human plasma IgG2; [23]): > 10 µM; Kd (human plasma IgG2; [24]): > 10 µM; Kd (human plasma IgG2; [25]): > 10 µM; Kd (human plasma IgG2; [26]): > 10 µM; Kd (human plasma IgG2; [27]): > 10 µM; Kd (human plasma IgG2; [28]): > 10 µM
> 10 | > 10 | > 10 | > 10 | > 10 | > 10 | > 10 | > 10 | > 10 | > 10 | > 10 | > 10 | > 10 | > 10 | > 10 | > 10 | > 10 | 0.3 to 0.6 | 0.3 to 0.6 | > 10 | CC[C@H](C)[C@@H]1NC(=O)[C@H](CCCCN)NC(=O)[C@@H](NC(=O)[C@H](Cc2c[nH]c3ccccc23)NC(=O)[C@H](Cc2ccc(O)cc2)NC(=O)[C@H](CO)NC(=O)CNC(=O)[C@H](C)NC(C)=O)CSSC[C@@H](C(=O)N2CCC[C@H]2C(=O)N[C@@H](CCC(N)=O)C(=O)N[C@@H](CO)C(=O)N2CCC[C@H]2C(=O)NCC(=O)N2CCC[C@H]2C(=O)N[C@@H](CCC(=O)O)C(=O)NCC(=O)NCC(=O)NCC(=O)N[C@@H](CCCCN)C(N)=O)NC(=O)[C@H](C(C)C)NC(=O)[C@H](CC(=O)O)NC(=O)[C@H](Cc2c[nH]c3ccccc23)NC1=O [DX392] (Ac-AGSYWCKIWDVCPQSPGPEGGGK-NH2; disulfide 6-12 (inferred)) | Kd (human plasma IgG3; [21]): > 10 µM; Kd (human plasma IgG2; [22]): > 10 µM; Kd (human plasma IgG2; [23]): > 10 µM; Kd (human plasma IgG2; [24]): > 10 µM; Kd (human plasma IgG2; [25]): > 10 µM; Kd (human plasma IgG2; [26]): > 10 µM; Kd (human plasma IgG2; [27]): > 10 µM; Kd (human plasma IgG2; [28]): > 10 µM
